Measured values taken from patent publication US8642649B2, “Orally dispersible tablet” (Takeda Pharmaceutical Company Limited, priority 2011, dated 2014).
In brackets after ≈: the same amount, converted by molar mass.

Assays:
[1] = randomized open-label pharmacokinetic study of oral-mucosal tablets versus oral 8 mg tablet; type: in vivo, human; conditions: for AUC(0-t) / Cmax: human serum, mean, N=6, measurement substance = label
Protocol: A randomized, open-label study to assess the pharmacokinetic parameters of an oral-mucosal tablet containing Compound A and its bioavailability relative to an oral 8 mg tablet containing Compound A was performed.
The test was conducted in two parts: (1) a parallel-group design to evaluate the pharmacokinetic parameters of 3 doses of Compound A (0.25, 0.5 and 1 mg) in oral-mucosal tablets and (2) an open-label, randomized 2-period crossover design to assess the relative bioavailability (pharmacokinetic profile) of the oral-mucosal 0.5 mg tablet compared with the bioavailability of the oral 8 mg tablet.
For part (1), a total of 18 subjects were randomly assigned to 1 of the 3 dosing regimens (i.e., 0.25, 0.5 and 1 mg; 6 subjects per dose) and each subject received a single dose of Compound A at the assigned dose.
For part (2), a total of 24 subjects were randomly assigned to take either the oral-mucosal 0.5 mg tablet or the oral 8 mg tablet at a single dose during each of the two periods.
To evaluate the studies, the pharmacokinetic parameters of Compound A and M-II were measured, including maximum observed serum concentration (Cmax) and area under the serum concentration-time curve from time 0 to the last quantifiable concentration (AUC(0-tlqc)).

[2] = system: patients suffering from bipolar disorder and in the remission phase; experiment: maintenance of remission phase in patients with bipolar disorder, double-blind randomized placebo-controlled trial; type: in vivo, human; conditions: oral 8 mg once daily at bedtime
Protocol: Oral 8 mg formulation containing Compound A The test tablet was administered to a group of patients suffering from bipolar disorder and in the remission phase, once daily at bedtime for 6 months. A placebo was administered once daily at bedtime to a separate control group of patients in the remission phase of bipolar disorder for 6 months. This study was performed as a double-blind, randomized, placebo-controlled trial. The time from randomization to relapse over 6 months of treatment is determined by the Primary Investigator (PI) or defined by any of the following criteria: depression [Montgomery-Asberg Depression Rating Scale (MADRS) score ≧16]; mania/hypomania [Young Mania Rating Scale (YMRS) total score ≧14]; clinical global impressions bipolar version (CGI-BP); cumulative proportion of participants in each arm (placebo or Compound A) surviving without relapse [MADRS score ≧16 and YMRS total score ≧14], a medication initiation or change for manic/depressed/mixed symptoms, a hospitalization for manic/depressed/mixed symptoms and suicide risk or imminent risk of suicide.

solubility of compound A = type: physicochemical; conditions: irrespective of pH
[3] = system: patients suffering from bipolar disorder; experiment: acute depression in patients with bipolar disorder, double-blind randomized placebo-controlled trial (CGI-BP); type: in vivo, human; conditions: oral 8 mg once daily up to 8 weeks; value below 0 favors Compound A; 95% CI; N=9; P value=0.001
[4] = blood kinetics of unchanged form and active metabolite M-II after oral or sublingual administration to human (cross-over, open-label); type: in vivo; conditions: for Cmax: serum, mean
Protocol: Oral preparation and preparation for oral-mucosal absorption were measured for blood kinetics of unchanged form and active metabolite M-II after oral or sublingual administration to human. The plasma concentration before administration, and 5 min, 10 min, 15 min, 20 min, 30 min, 45 min, 60 min, 90 min, 120 min, 180 min, 240 min, 360 min, 480 min, 600 min, 720 min and 1440 min after administration was measured.
To be specific, symbol/term and definition thereof in this table are explained in the following. The study was conducted by cross-over method under open-label condition.
AUC(0-tlqc): Area under the serum concentration-time curve from time 0 to time of the last quantifiable concentration (tlqc), calculated using the linear trapezoidal rule.
AUC(0-inf): Area under the serum concentration-time curve from time 0 to infinity, calculated as AUC(0-inf)=AUC(0-tlqc)+lqc/λz, where tlqc is the time of last quantifiable concentration and lqc is the last quantifiable concentration. λz: Terminal elimination rate constant, calculated as the negative of the slope of the log-linear regression of the natural logarithm concentration-time curve during the terminal phase. Cmax: Maximum observed serum concentration. Tmax: Time to reach Cmax. Active metaboline M-II: (2S)-2-Hydroxy-N-{2-[(8S)-1,6,7,8-tetrahydro-2H-indeno[5,4-b]furan-8-yl]ethyl}propanamide

[5] = single oral-mucosal tablet dose of Compound A 0.25 mg
[6] = single oral-mucosal tablet dose of Compound A 0.5 mg
[7] = single oral-mucosal tablet dose of Compound A 1 mg

C[C@H](O)C(=O)NCC[C@@H]1CCc2ccc3c(c21)CCO3 [M-II, (2S)-2-Hydroxy-N-{2-[(8S)-1,6,7,8-tetrahydro-2H-indeno[5,4-b]furan-8-yl]ethyl}propanamide]
AUC(0-t) [1, 5]: 4.64 ng·h/mL
Cmax [1, 5]: 1.85 ng/mL
AUC(0-t) [1, 6]: 10.5 ng·h/mL
Cmax [1, 6]: 3.74 ng/mL
AUC(0-t) [1, 7]: 20.2 ng·h/mL
Cmax [1, 7]: 7.68 ng/mL
fraction of exposure compared to the approved oral 8 mg tablet ([1]; oral-mucosal administration 0.5 mg): < 7%

CCC(=O)NCC[C@@H]1CCc2ccc3c(c21)CCO3 [compound A, (S)—N-[2-(1,6,7,8-tetrahydro-2H-indeno[5,4-b]furan-8-yl)ethyl]propionamide]
Cumulative Proportion of Patients in each arm surviving without relapse ([2]; Baseline): 1.00
Cumulative Proportion of Patients in each arm surviving without relapse ([2]; Month 1): 0.929
Cumulative Proportion of Patients in each arm surviving without relapse ([2]; Month 2): 0.849
Cumulative Proportion of Patients in each arm surviving without relapse ([2]; Month 3): 0.716
Cumulative Proportion of Patients in each arm surviving without relapse ([2]; Month 4): 0.661
Cumulative Proportion of Patients in each arm surviving without relapse ([2]; Month 5): 0.632
Cumulative Proportion of Patients in each arm surviving without relapse ([2]; Month 6): 0.566
AUC(0-t) [1, 5]: 2.6 ng·h/mL
Cmax [1, 5]: 3.14 ng/mL
AUC(0-t) [1, 6]: 6.23 ng·h/mL
Cmax [1, 6]: 5.85 ng/mL
AUC(0-t) [1, 7]: 7.87 ng·h/mL
Cmax [1, 7]: 9.57 ng/mL
solubility (solubility of compound A): ~200 µg/mL (≈ 771 µM)
CGI-BP severity for depression, longitudinal analysis of change in outcome [3]: −0.1 (−0.16 to −0.05)
AUC(0-inf) unchanged/metabolite ratio ([4]; oral administration): 0.03
Cmax unchanged/metabolite ratio ([4]; oral administration): 0.07
Cmax ([4]; oral, dose 8 mg): 4.76 ± 5.19 ng/mL
Cmax ([4]; sublingual, dose 0.5 mg): 4.74 ng/mL
AUC(0-inf) unchanged/metabolite ratio ([4]; sublingual administration): 0.30
Cmax unchanged/metabolite ratio ([4]; sublingual administration): 1.13
